Source: BindingDB's records for doi:10.1007/s10822-022-00478-x (Roche Innovation Center Basel, F. Hoffmann-La Roche Ltd., 2022)

Target: cAMP and cAMP-inhibited cGMP 3',5'-cyclic phosphodiesterase 10A (Homo sapiens, UniProt Q9Y233)
Experiment: PDE10A assay
Outline: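 Human PDE10A (2 ng/well) preincubated 15 min RT with compound in HEPES pH 7.5, 10 mM MgCl2, BSA, then reacted 15 min with 50 nM [3H]cGMP/cGMP substrate. Stopped with Y-Si SPA beads; bound radioactivity counted, IC50 from four-parameter logistic, pIC50 = −log10(IC50).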

SMILES	IC50
CCn1ccc(NC(=O)c2c(C(=O)N3CCC3)cnn2C)n1 [Roche-Dataset for PDE10A, Compound 1121]	1320 nM
CNC(=O)c1nn(C)cc1NC(=O)c1nc(C2CC2)ccc1N(C)c1cncnc1 [Roche-Dataset for PDE10A, Compound 1122]	10000 nM
O=C(NCC(F)(F)F)c1nc(C2CC2)cnc1Nc1cncnc1 [Roche-Dataset for PDE10A, Compound 1124]	1240 nM
C/C(=C\c1nc2c(C)ncc(C)n2n1)c1nc(Br)nn1C [Roche-Dataset for PDE10A, Compound 1125]	4820 nM
O=C(N[C@@H]1C[C@H]2CC[C@@H]1C2)c1nc(C2CC2)cnc1Nc1cncnc1 [Roche-Dataset for PDE10A, Compound 1126]	1080 nM
Cc1cnc(C)n2nc(/C=C/c3nc(Br)nn3C)nc12 [Roche-Dataset for PDE10A, Compound 1128]	2060 nM
CNC(=O)c1c(NC(=O)c2c(C(=O)N3CCC3)cnn2C)cnn1C [Roche-Dataset for PDE10A, Compound 1129]	8330 nM
Cc1cnc(C)n2nc(CCc3ncnn3C)nc12 [Roche-Dataset for PDE10A, Compound 1130]	2420 nM
Cc1ncc(C)n2nc(CCc3nc(Br)nn3C)nc12 [Roche-Dataset for PDE10A, Compound 1131]	2480 nM
Cc1ncc(C)n2nc(/C=C/c3nc(N4CC[C@@H](NC(=O)OC(C)(C)C)C4)nn3C)nc12 [Roche-Dataset for PDE10A, Compound 1132]	752 nM
Cn1ncc(C(=O)N2CCC2)c1C(=O)Nc1ccc2cc(-c3ccccc3)nn2n1 [Roche-Dataset for PDE10A, Compound 1133]	8.14 nM
C/C(=C/c1nc2c(C)ncc(C)n2n1)c1nc(Br)nn1C [Roche-Dataset for PDE10A, Compound 1134]	2260 nM
CCn1nc(NC(=O)c2c(C(=O)N3CCC3)cnn2C)cc1C1CC1 [Roche-Dataset for PDE10A, Compound 1135]	6120 nM
CN(C)C(=O)c1cnn(Cc2ccccc2)c1C(=O)Nc1ccn2nc(N3CCOCC3)nc2c1 [Roche-Dataset for PDE10A, Compound 1136]	868 nM
Cn1ccc(NC(=O)c2c(C(=O)N3CCC3)cnn2C)n1 [Roche-Dataset for PDE10A, Compound 1137]	1430 nM
Cn1nccc1NC(=O)c1c(C(=O)N2CCC2)cnn1C [Roche-Dataset for PDE10A, Compound 1138]	1920 nM
Cc1cc(NC(=O)c2c(C(=O)N3CCC3)cnn2C)cc(Br)n1 [Roche-Dataset for PDE10A, Compound 1139]	4650 nM
Cc1cc(C)n2nc(CCc3nc(N(C)C)nn3C)nc2n1 [Roche-Dataset for PDE10A, Compound 1140]	535 nM

SMILES	IC50
Cc1cnc(C)n2nc(/C=C/c3ncnn3C)nc12 [Roche-Dataset for PDE10A, Compound 1142]	3910 nM
O=C(N[C@]12C[C@H]3C[C@H](C[C@H](C3)C1)C2)c1nc(C2CC2)cnc1Nc1cncnc1 [Roche-Dataset for PDE10A, Compound 1143]	788 nM
Cc1cc(C)n2nc(/C=C/c3nc(N(C)C)nn3C)nc2n1 [Roche-Dataset for PDE10A, Compound 1144]	924 nM
Cc1ncc(C)n2nc(CCc3nc(N4CCN(C(c5ccccc5)c5ccccc5)C4=O)nn3C)nc12 [Roche-Dataset for PDE10A, Compound 1145]	4770 nM
Cn1ncc(C(=O)N2CCC2)c1C(=O)Nc1cc2ccccn2n1 [Roche-Dataset for PDE10A, Compound 1147]	692 nM
Cc1cc(NC(=O)c2c(C(=O)N3CCC3)cnn2C)n[nH]1 [Roche-Dataset for PDE10A, Compound 1149]	2680 nM
Cc1ncc(C)n2nc(CCc3nc(N)nn3C)nc12 [Roche-Dataset for PDE10A, Compound 1150]	3930 nM
Cn1ncc(C(=O)O)c1C(=O)Nc1ccc2nc(N3CCOCC3)nn2c1 [Roche-Dataset for PDE10A, Compound 1151]	1340 nM
CNC(=O)c1c(NC(=O)c2nc(Cl)c(OC)nc2Nc2cncnc2)cnn1C [Roche-Dataset for PDE10A, Compound 1152]	4550 nM
Cn1ncc(C(=O)NCc2nc3ccccc3[nH]2)c1C(=O)Nc1ccn2cc(-c3ccccc3)nc2n1 [Roche-Dataset for PDE10A, Compound 1153]	1520 nM
O=C(NC1CCCCCC1)c1nc(C2CC2)cnc1Nc1cncnc1 [Roche-Dataset for PDE10A, Compound 1154]	1040 nM
Cn1ncc(C(=O)N2CCC2)c1C(=O)Nc1cc[nH]n1 [Roche-Dataset for PDE10A, Compound 1155]	3130 nM
Cn1ncc(C(=O)NCc2cc(C(F)(F)F)ccn2)c1C(=O)Nc1ccn2cc(-c3ccccc3)nc2n1 [Roche-Dataset for PDE10A, Compound 1156]	2760 nM
Cn1ncc(C(=O)NCc2cccc(C(F)(F)F)n2)c1C(=O)Nc1ccn2cc(-c3ccccc3)nc2n1 [Roche-Dataset for PDE10A, Compound 1157]	4780 nM
Cc1cc(C)n2nc(/C=C/c3nc(Br)nn3C)nc2n1 [Roche-Dataset for PDE10A, Compound 1158]	10000 nM
Cc1cc(C)n2nc(CCc3ncnn3C)nc2n1 [Roche-Dataset for PDE10A, Compound 1159]	10000 nM
Cc1cc(C)c2c(NC(=O)c3c(C(=O)N4CCC4)cnn3C)nn(C)c2n1 [Roche-Dataset for PDE10A, Compound 1160]	4290 nM

Second part, the compound after the results:

IC50	SMILES
9.7 nM	O=C(Nc1ccn(-c2ccncc2)n1)c1nc(C2CC2)ccc1Nc1cncnc1 [US8470820, 7]
3.23 nM	Cn1nc(-c2ccccn2)cc1NC(=O)c1nc(C2CC2)ccc1Nc1cncnc1 [US8470820, 8]
2.25 nM	O=C(Nc1cc(-c2ccccn2)nn1CCO)c1nc(C2CC2)ccc1Nc1cncnc1 [US8470820, 10]
5.24 nM	COCc1ccc(Nc2cncnc2)c(C(=O)Nc2cc(-c3ccccn3)nn2CCO)n1 [US8470820, 11]
1.05 nM	CN(C)CCn1nc(-c2ccccn2)cc1NC(=O)c1nc(C2CC2)ccc1Nc1cncnc1 [US8470820, 12]
3.74 nM	CCOC(=O)Cn1nc(-c2ccccn2)cc1NC(=O)c1nc(C2CC2)ccc1Nc1cncnc1 [US8470820, 15]
1.53 nM	O=C(Nc1cc(-c2ccccn2)nn1CCN1CCOCC1)c1nc(C2CC2)ccc1Nc1cncnc1 [US8470820, 16]
4.91 nM	O=C(Nc1cc(-c2ccccn2)nn1CCc1ccccc1)c1nc(C2CC2)ccc1Nc1cncnc1 [US8470820, 17]
2.54 nM	O=C(Nc1cc(-c2ccccn2)nn1CC(F)(F)F)c1nc(C2CC2)ccc1Nc1cncnc1 [US8470820, 22]
1.68 nM	CCCn1nc(-c2ccccn2)cc1NC(=O)c1nc(C2CC2)ccc1Nc1cncnc1 [US8470820, 23]
1.41 nM	O=C(Nc1cc(-c2cccc(Cl)n2)nn1CCO)c1nc(C2CC2)ccc1Nc1cncnc1 [US8470820, 24]
0.09 nM	O=C(Nc1cc(-c2ccc3ccccc3n2)nn1CCO)c1nc(C2CC2)ccc1Nc1cncnc1 [US8470820, 25]
1.59 nM	O=C(Nc1cc(-c2ccc(Cl)cn2)nn1CCO)c1nc(C2CC2)ccc1Nc1cncnc1 [US8470820, 26]
2.55 nM	CC(C)n1nc(-c2ccccn2)cc1NC(=O)c1nc(C2CC2)ccc1Nc1cncnc1 [US8470820, 27]
1.24 nM	CC(C)Cn1nc(-c2ccccn2)cc1NC(=O)c1nc(C2CC2)ccc1Nc1cncnc1 [US8470820, 28]
1.71 nM	O=C(Nc1cc(-c2ccccn2)nn1Cc1ccccc1)c1nc(C2CC2)ccc1Nc1cncnc1 [US8470820, 29]
4.73 nM	CCn1nc(-c2ccccn2)cc1NC(=O)c1nc(C2CC2)ccc1Nc1cncnc1 [US8470820, 30]
1.12 nM	O=C(Nc1cc(-c2ccccn2)nn1CC1CCCC1)c1nc(C2CC2)ccc1Nc1cncnc1 [US8470820, 31]

IC50	SMILES
1.06 nM	O=C(Nc1cc(-c2ccccn2)nn1CC1CCCCC1)c1nc(C2CC2)ccc1Nc1cncnc1 [US8470820, 32]
1.51 nM	Cn1cncc1Cn1nc(-c2ccccn2)cc1NC(=O)c1nc(C2CC2)ccc1Nc1cncnc1 [US8470820, 37]
0.18 nM	COCCn1nc(-c2ccccn2)cc1NC(=O)c1nc(C2CC2)ccc1Nc1cncnc1 [US8470820, 38]
3.16 nM	Cn1nc(-c2ccc(Cl)cn2)cc1NC(=O)c1nc(C2CC2)ccc1Nc1cncnc1 [US8470820, 39]
0.08 nM	Cn1nc(-c2ccc3ccccc3n2)cc1NC(=O)c1nc(C2CC2)ccc1Nc1cncnc1 [US8470820, 40]
2.77 nM	Cn1nc(-c2cccc(Cl)n2)cc1NC(=O)c1nc(C2CC2)ccc1Nc1cncnc1 [US8470820, 41]
4.15 nM	CN1CCC(n2nc(-c3ccccn3)cc2NC(=O)c2nc(C3CC3)ccc2Nc2cncnc2)CC1 [US8470820, 43]
1790 nM	COc1ccc(-c2nnc(NC(=O)c3nc(C4CC4)ccc3Nc3cncnc3)s2)cc1 [US8470820, 44]
6200 nM	O=C(Nc1nnc(-c2ccc(F)cc2)s1)c1nc(C2CC2)ccc1Nc1cncnc1 [US8470820, 45]
1.43 nM	O=C(Nc1ccc(-c2ccccn2)s1)c1nc(C2CC2)ccc1Nc1cncnc1 [US8470820, 50]
3.85 nM	O=C(Nc1cc(-c2ccccn2)no1)c1nc(C2CC2)ccc1Nc1cncnc1 [US8470820, 51]
6.57 nM	COCc1ccc(Nc2cncnc2)c(C(=O)Nc2cc(-c3ccccn3)nn2C)n1 [US8470820, 59]
126 nM	Cn1nc(NC(=O)c2nc(C3CC3)ccc2Nc2cncnc2)cc1-c1ccccn1 [US8470820, 63]
2580 nM	O=C(Nc1nnc(-c2ccccn2)o1)c1nc(C2CC2)ccc1Nc1cncnc1 [US8470820, 64]
0.83 nM	CNC(=O)c1c(NC(=O)c2nc(C3CC3)ccc2Nc2cncnc2)cnn1CCOC [US8703768, 11]
33 nM	Cn1cc(NC(=O)c2nc(C3CC3)ccc2Nc2cncnc2)c(C(=O)N2CCC2)n1 [US8703768, 30]
6.78 nM	CN(C)C(=O)c1nn(-c2ccccn2)cc1NC(=O)c1nc(C2CC2)ccc1Nc1cncnc1 [US8703768, 74]
0.48 nM	O=C(NC1CC1)c1ccsc1NC(=O)c1nc(C2CC2)ccc1Nc1cncnc1 [US8703768, 89]
